Results published in US20220380769A1 (priority 2020, published 2022).
Values after ≈ are worked out from the molar mass of the structure shown. “Also recorded” adds a separate entry of the source. Read-outs that look alike come from different tables or passages of the source.

Legend:
TNF-α = TNF-α induction
From the text: (§1) Of the tdsRNA of the disclosure, the tdsRNA of formula 1 and formula 5 is preferred. This is because mis-paired regions of base pair hydrogen bonding accelerate chain hydrolysis while preserving biological activity compared to, for example, formula 3 and formula 4. Also formula 1 and formula 5 had decreased toxicity and improved safety compared to the tdsRNA which has an absence of mis-pairing.

TLR3 = TLR3 agonist selectivity versus RNA helicase sensors (MDA5, RIG-I); details: versus TLR-3 independent pathways (MDA5, RIG-I)
From the text: as §1

[1] = Development of antibodies to the dsRNA in usage
From the text: as §1

[2] = test system: SARS coronavirus 2003VA2774; details: cited from earlier work
[3] = human; cited from earlier work
[4] = test system: SARS coronavirus Strain 39849; details: Strain 39849/Vero E6; cited from earlier work
[5] = test system: SARS-associated coronavirus Strain FFM1; details: Strain FFM1/Caco-2; cited from earlier work
SARS-CoV Strain v2163 = details: in vivo, cited from earlier work
[6] = test system: SARS-associated coronavirus Strain FFM1; details: Strain FFM1/CL-14; cited from earlier work
human CoV strain OC43 = details: Strain OC43/BS-C-1 Kidney cells (African Green Monkey); inhibition of CPE; cited from earlier work
[7] = test system: SARS-CoV-2 (strain USA-WA1/2020); assay: microbe, parasite or virus in culture; format: cell-based
Ebola Virus = details: in vivo, 6 mg/kg
[8] = test system: SARS virus (Urbani Strain); details: in vivo, cited from earlier work
[9] = test system: normal, human-derived tracheal/bronchial epithelial (TBE) cells
H5N1 influenza virus = details: in vivo; cited from earlier work
[10] = cited from earlier work
[11] = Synergy of rintatolimod with antiviral and antiproliferative drugs
From the text: These interferons include rIFN-α-2a, rIFN-β-1b, rIFN-γ.

H5N1 influenza viruses = details: in vivo; cited from earlier work
[12] = test system: avian H5N1 and H7N9 influenza hemagglutinins (HAs); details: in vivo; cited from earlier work
[13] = Clinical safety and tolerability in humans; format: in vivo, human
From the text: Favorable safety profiles have been seen for intraperitoneal, intravenous, and intranasal routes of administration of tdsRNA.

Mouse Hepatitis CoV MHV = details: Mouse Hepatitis CoV MHV/BALB/c mice/IP; 10 μg/dose; cited from earlier work

Question: With rIn.r(CxU)n [formula 1] as the compound, how does the TNF-α induction (TNF-α) read?
Answer: Its TNF-α induction is “does not induce TNF-α”.

Question: And the TLR3 agonist selectivity (TLR3)?
Answer: Its TLR3 agonist selectivity is “selective TLR3 agonist”.

Question: What about the development of antibodies [1] of the same compound?
Answer: The development of antibodies was “no development of antibodies”.

Question: For `NC(=O)c1ncn([C@@H]2O[C@H](CO)[C@@H](O)[C@H]2O)n1` [Ribavirin], which IC100 [2] is on record?
Answer: Its IC100 is “IC100: 5,000 μg/mL”.

Question: What about the “clinically achievable serum concentrations” value [3] of the same compound?
Answer: The value was 3.7 µg/mL.

Question: What about the EC50 [4] of the same compound?
Answer: The EC50 was “EC50: 50-100 μg/mL”.

Question: What about the EC50 [5] of the same compound?
Answer: The EC50 was “EC50: 4.7 μg/mL”.

Question: And the “Survival (mice surviving/total)” value (SARS-CoV Strain v2163)?
Answer: The value was “(3/10) 65”.

Question: What about the EC50 [6] of the same compound?
Answer: The EC50 was “EC50: 5.3 μg/mL”.

Question: Which EC50 (human CoV strain OC43) does the source give for “Polyribosinic-Polyribocytidylic Acid Stabilized with Poly-L-lysine, in Carboxymethylcellulose [Poly ICLC]” here?
Answer: The EC50 was “EC50: >100 μg/mL”.

Question: What does the source list for `CCC(CC)COC(=O)[C@H](C)N[P@](=O)(OC[C@H]1O[C@@](C#N)(c2ccc3c(N)ncnn23)[C@H](O)[C@@H]1O)Oc1ccccc1` [Remdesivir]?
Answer: Log10 CCID50 virus per 0.2 mL ([7]; 0.001 μg/mL): 4.30; Log10 CCID50 virus per 0.2 mL ([7]; 0.01 μg/mL): 3.67; Log10 CCID50 virus per 0.2 mL ([7]; 0.1 μg/mL): 3.00; Log10 CCID50 virus per 0.2 mL ([7]; 1 μg/mL): 3.00; EC90 ([7]; Severe acute respiratory syndrome coronavirus 2, read-out: EC90 (concentration to reduce virus yield by 1 log10)): 0.01 µg/mL (≈ 0.0166 µM)

Question: With rIn.r(C12U)n [Rintatolimod] as the compound, how does the Survival (Ebola Virus) read?
Answer: Its Survival is 100%.

Question: And the “Drug Dose giving reduction of virus lung titers below level of detection on Day 3” value ([8]; ip)?
Answer: The value was 10 mg/kg.

Question: And the “SARS virus (Urbani Strain) titers in the lungs” value [8]?
Answer: Its value is “Complete inhibition to below detectable levels; also recorded: reduced virus lung titers to below detectable limits”.

Question: What about the “cytotoxic / cellular toxicity” value ([9]; 0.5 mg/mL) of the same compound?
Answer: Its value is 0%.

Question: And the “cytotoxic / cellular toxicity” value ([9]; 1.5 mg/mL)?
Answer: The value was 0%.

Question: And the cytotoxic ([9]; 4.5 mg/mL)?
Answer: Its cytotoxic is 12%.

Question: What about the cytotoxic ([9]; 10 mg/mL) of the same compound?
Answer: Its cytotoxic is 47%.

Question: What about the “Vaccine specific salivary IgA and serum IgG antibodies” value (H5N1 influenza virus) of the same compound?
Answer: Its value is “detected after the second immunization”.

Question: What about the “protection from challenge infection with the homologous virus” value (H5N1 influenza virus) of the same compound?
Answer: The value was “completely protected”.

Question: What about the “serum neutralizing antibody activity against homologous and heterologous H5N1 influenza virus” value (H5N1 influenza virus) of the same compound?
Answer: The value was “developed serum neutralizing anti-body activity”.

Question: And the “tolerability of dosage level” value ([10]; 700 mg in an average weight human (70 kg), equivalent to 10 mg/kg)?
Answer: Its value is “generally well-tolerated”.

Question: What about the tolerability administered intravenously ([10]; Chronic Fatigue Syndrome (CFS) patients, placebo-controlled trials) of the same compound?
Answer: The tolerability administered intravenously was “generally well-tolerated”.

Question: What about the “synergy with α, β, and γ interferons, antiviral indication” value ([11]; HIV/AIDS, rIFN-α-2a, rIFN-β-1b, rIFN-γ) of the same compound?
Answer: The value was “synergy; also recorded: synergistic”.

Question: And the “synergy with small molecule antiviral drugs” value ([11]; Influenza (oseltamivir, zanamivir), HIV/AIDS (abacavir, zidovudine, zalcitabine, didanosine, stavudine, efavirenz, indinavir, ritonavir, nelfinavir, amprenavir, ribavirin))?
Answer: The value was “synergy; also recorded: synergistic”.

Question: And the “synergy, antiproliferative (cancer) indications” value ([11]; interferons (nIFN-α, rIFN-α-2a, nIFN-β, rIFN-β-1b, nIFN-γ), IL-2, Anti-PD-L1)?
Answer: Its value is “synergistic”.

Question: And the “antigen specific IgA response in the nasal mucosa” value (H5N1 influenza viruses)?
Answer: Its value is “robust antigen specific IgA response”.

Question: And the “protection against challenge with homologous and heterologous H5N1 influenza viruses” value (H5N1 influenza viruses)?
Answer: Its value is “protected”.

Question: What about the “cross-reactive IgA antibody formation against avian H5N1 and H7N9 influenza hemagglutinins” value [12] of the same compound?
Answer: The value was “induced cross-reactive IgA antibody formation”.

Question: What about the “tolerability of combinational use with FluMist” value [12] of the same compound?
Answer: Its value is “well tolerated”.

Question: And the drug-related deaths ([13]; clinical trials, over 1,200 patients)?
Answer: Its drug-related deaths is “no drug-related deaths”.

Question: What about the “tolerability in clinical trials” value ([13]; over 1,200 patients, over 100,000 doses) of the same compound?
Answer: Its value is “well-tolerated”.

Question: And the “serious adverse events compared to placebo” value ([13]; two placebo-controlled, randomized studies)?
Answer: Its value is “no increase”.

Question: And the Survival (Mouse Hepatitis CoV MHV)?
Answer: Its Survival is “increased survival”.

Question: And the “lung scores and weight loss” value (SARS-CoV Strain v2163; 10 mg/kg/day)?
Answer: Its value is “significantly reduced”.

Question: What about the Survival (SARS-CoV Strain v2163) of the same compound?
Answer: The Survival was 100%.

Question: And the “Survival (mice surviving/total)” value (SARS-CoV Strain v2163)?
Answer: Its value is 10/10 and (10/10).

Question: What about the “decline of virus in the lungs compared with untreated animals” value (SARS-CoV Strain v2163) of the same compound?
Answer: The value was “more rapid decline of virus in the lungs”.

Question: For rugged dsRNA [formula 5], which TNF-α induction (TNF-α) is on record?
Answer: Its TNF-α induction is “does not induce TNF-α”.

Question: What about the TLR3 agonist selectivity (TLR3) of the same compound?
Answer: The TLR3 agonist selectivity was “selective TLR3 agonist”.

Question: And the development of antibodies [1]?
Answer: The development of antibodies was “no development of antibodies”.

Question: Which TNF-α induction (TNF-α) does the source give for rIn.rCn [formula 4] here?
Answer: Its TNF-α induction is “high levels”.

Question: What about the TLR3 agonist selectivity (TLR3) of the same compound?
Answer: Its TLR3 agonist selectivity is “non-selective”.
